Assay results: patent US20220015355A1, “NOVEL CARRIER FLUIDS FOR LIQUID FUNGAL SPORE FORMULATIONS” (priority 2018, published 2022)

What was measured:
[1] = system: Isaria fumosorosea spores; assay: spore viability of Isaria fumosorosea spores in carrier fluid after storage at 30° C., Method 1 (germination on agar); assay type: cell-based
Description: (§1) Method 1: 1.5 g of Isaria fumosorosea pure spore powder were transferred into a formulation vessel (IKA Type DT-20 mixing vessel with dispersion tool for Ultra Turrax) using a sterile spoon. 13.5 mL of fluid were added into the respective formulation vessel and dispersed using ultra turrax tube drive control for 1 min at 3000 rpm; change direction after 30 sec. After this 2.8 mL were transferred in four sample bottles (Wheaton Serum vial, Type I) leaving little headspace and closed tight using crimpneck caps (Macherey—Nagel type N 13) Afterwards all sample bottles were transferred to an incubator set at 30° C. and stored for a given time.
(§2) In regular intervals a sample was retrieved from the storage location and analyzed for spore viability. Therefore the original samples were thoroughly homogenized. Aliquots of 0.25 g or […] of each sample are transferred into 50 mL falcon tubes. The tubes were filled up to 25 g using a sterile aqueous solution containing 2% Tween 80 and homogenized by vortexing to achieve the first dilution step (1:100 dilution). This dilution is used for further dilution and spotting on agar.
For evaluation of spore germination rate a 1:15000 dilution based on the 1:100 dilution achieved by multiple automated dilution (pipetting robot, 96 well plate) was prepared. Afterwards 12×12 cm agar plates were taken and spotted with 10 times 5 μL of each sample using an automated 12-Channel pipet. After all liquid is soaked up by agar the agar plates were incubated at 23° C. for 16 hours.

[2] = system: P. lilacinum strain 251 spores; assay: spore viability (germination rate on agar) of P. lilacinum spores in carrier fluid after storage at 30° C.; assay type: cell-based, Purpureocillium lilacinum
Description: as §1, with “3” for “Method 1: 1.5”, “P. lilacinum strain 251” for “Isaria fumosorosea”, “12” for “13.5”
as §2
(§3) For evaluation of spore germination rate prepare a 1:30000 dilution based on the 1:100 dilution achieved by multiple automated dilution (pipetting robot, 96 well plate). Afterwards 12×12 cm agar plates are taken and spotted with 10 times […] of each sample using an automated 12-Channel pipet. Wait until liquid is soaked up by agar and transfer agar plate to an incubator and incubate at 25° C. for 17 hours. Open the plate and place it under the microscope. Randomly choose one area per spot and record the number of germinated and non-germinated spores that are within the designated field. At least 200 spores per sample need to be evaluated. If needed count more than one field per spot.

[3] = system: Beauveria Bassiana spores; assay: spore viability (germination rate on agar) of Beauveria bassiana spores in carrier fluid after storage at 30° C.; assay type: cell-based
Description: as §1, with “1.5” for “Method 1: 1.5”, “Beauveria Bassiana” for “Isaria fumosorosea”
as §2
as §3, with “1:15000” for “1:30000”, “20°” for “25°”

[4] = system: Penicillium bilaii (ATCC 20851) spores; assay: spore viability (germination rate on agar) of Penicillium bilaii spores in carrier fluid after storage at 30° C.; assay type: cell-based
Description: as §1, with “1.5” for “Method 1: 1.5”, “Penicillium bilaii (ATCC 20851)” for “Isaria fumosorosea”
as §2
as §3, with “1:15000” for “1:30000”, “20°” for “25°”

[5] = system: Isaria fumosorosea spores; assay: spore viability of Isaria fumosorosea spores in carrier fluid after storage, Method 2 (flow cytometry); assay type: cell-based
Description: Method 2: 0.5 g of Isaria fumosoresea pure spore powder were transferred into an Erlenmeyer flask using a sterile spoon. 24.5 mL of fluid were dispersed using Ultra-Turrax (IKA; Type T 25 D) for 1 min at 3,000 rpm. After this, 2.0 mL were transferred in 20 sample bottles (Wheaton Serum vial, Type I) leaving little headspace and closed tight using crimpneck caps (Macherey—Nagel type N 13). Afterwards all sample bottles were transferred to an incubator set at 30° C. and stored for a given time.
In regular intervals a sample was retrieved from the storage location and analyzed for spore viability. For this purpose, the original samples were thoroughly homogenized. Aliquots of 0.5 g of each sample were transferred into 100 mL-Erlenmeyer flask. The flasks were filled up to 50 g using a sterile aqueous solution containing 0.1% Break Thru® 5240 (Evonik, Industries) and homogenized on a magnetic stirrer (Thermo Fisher Scientific: Cimarec™) at least for 15 min with 750 rpm to achieve the first dilution step (1:100 dilution). This dilution was used for further dilution.
Not all samples mixed well or mixed at all in 0.1% Break Thru 5240. For these samples, 500 μL Neo-wett (Kwizda Agro GmbH) and/or a small amount (knife tip) Metaupon®-OMT (LEUNA Tenside GmbH) were also added to the aqueous solution.
After homogenization 1 mL were transferred into a 1.5 mL tube and were centrifuged for 15 min at 14,000 rpm (Thermo Fisher Scientific, Type Megafuge 8R). The supernatant (=upper phase) was discarded by using a pipette. The tubes were filled up to 1 mL using a sterile aqueous solution containing 0.1% Neo-wett and homogenized by vortexing.
To assess fungal viability, a method based on flow cytometry was used.

Substance: Polyethyleneglycol-400 monooleate [Radiasurf 7403]
- spore viability [%] after 1 m (27 d) [1]: 76.2%
- spore viability [%] at day 1 [1]: 94.0%
- spore viability [%] after 1 m (27-28 d) [2]: 98.9%
- spore viability [%] after 2 m (51-55 d) [2]: 93.7%
- spore viability [%] after 2 w (12-15 d) [2]: 98.3%
- spore viability [%] after 7 m (210 d) [2]: 78.3%
- spore viability [%] at day 1 [2]: 98.6%
- spore viability [%] after 2 w (14 d) [3]: 77.3%
- spore viability [%] after 5 w (35 d) [3]: 72.3%
- spore viability [%] at day 1 [3]: 81.4%
- spore viability after storage for 3w or longer at 30° C. [3]: ≥ 50%
- spore viability [%] 3 m@30° C. (83-85 d) [4]: 61.8%
- spore viability [%] 6 w@30° C. (41-43 d) [4]: 66.8%
- spore viability [%] initial (1-2 d) [4]: 78.1%
- spore viability [%] after 1 m (27 d) [5]: 92.0%
- spore viability [%] after 2 w (~14 d) [5]: 86.0%
- spore viability [%] at day 1 [5]: 89.0%
